The record followed here is patent publication EP0155486A1, “1,3,5-Trisubstituted 1,2,4-triazole derivatives, process for their preparation and medicinal preparations containing them” (priority 1984, dated 1985).

The subject of series [1] is männlichen Ratten der Art Long Evans. As to the kind of experiment: animal or person. It counts as in vivo. As to conditions: for Prozentuale Hemmung bei einer peroralen Dosis von 1,56 mg/kg: peroral 1,56 mg/kg; for Prozentuale Hemmung bei einer peroralen Dosis von 3,12 mg/kg: peroral 3,12 mg/kg; for change in vivo at 6.25 mg/kg / change in vivo at 12.5 mg/kg: 504 h; for change in vivo at 6.25 mg/kg: read-out: Prozentuale Hemmung bei einer peroralen Dosis von 6,25 mg/kg; for ED50: read-out: Peroraler ED50-Wert in mg/kg an Ratten; for Therapeu-tischer Index LD50-Wert / ED50-Wert: ratio of peroral LD50 to peroral ED50, rats. On the procedure: Die Untersuchung der therapeutischen Wirkung der erfindungsgemäßen 1,2,4-Triazolderivate wurde mittels des modifizierten Newbould-Prüfversuches (Brit. J. Pharmacol., 21 [1963], Seite 127) durchgeführt. Dazu wurde in die rechen Hinterfüße von männlichen Ratten der Art Long Evans mit Gewichten von 180 bis 250 g intraplantar […] abgetötetes Mycobacterium tuberculosis in einem Volumen von 0,1 ml injiziert. Nachfolgend wurden die Ratten pro betreffenden Tag mit einer Dosis der zu untersuchenden Verbindung insgesamt 16-mal während 3 Wochen behandelt. Die Änderung des Volumens der Fußschwellung wurde 21 Tage lang täglich mit einem Quecksilber-Plethysmometer vom Lence-Typ bestimmt. Vom 10-ten Tag an wurde das Volumen des linken Hinterfußes bestimmt. Die prozentuale Hemmung wurde im Verhältnis zu diesem Volumen aus der eintretenden Änderung in der Schwellung des rechten Hinterfußes berechnet.

The next series concerns Ratten. As to the kind of experiment: ulcerogenic side effect. It is filed as in vivo. On the procedure: Auch die geschwürbildende beziehungsweise ulcerogene Wirkung, eine der kritischsten Nebenwirkungen entzündungshemmender Mittel, betreffend erwiesen sich die erfindungsgemäßen 1,2,4-Triazolderivate als im Vergleich zu Handelspräparaten günstiger. So führten Einzeldosen von 15 mg/kg 1-(p-Chlorbenzoyl)-5-(methoxy)-2-(methyl)-indol-3-ylessig- säure {Indometacin} bei 100% der Ratten Geschwüre (Ulcus) herbei, während Einzeldosen von 1 000 mg/kg 1,5-Bis-[4'--(chlor)-phenyl]-3-[methylthio]-1,2,4-triazol (Verbindung des Beispieles 27) nur bei 10% der Tiere Geschwüre verursachten.

The nature of the next series: in vivo. The settings on record: rat, po, peroral, rats, read-out: Peroraler LD50-Wert in mg/kg an Ratten.
Where [2] appears, read: 16 doses during 3 weeks, paw swelling, rats.
Where [3] appears, read: po, read-out: Prozentuale Hemmung bei einer peroralen Dosis von 12,5 mg/kg.
[4] abbreviates: po, peroral 12,5 mg/kg, 16 doses during 3 weeks, paw swelling, rats, read-out: Prozentuale Hemmung bei einer peroralen Dosis von 12,5 mg/kg.

Like-named read-outs stand apart in the source and are kept apart here.

Consider `CSc1nc(-c2ccc(Cl)cc2)n(-c2ccc(Cl)cc2)n1` [Beispiel 27, 1,5-Bis-[4'-(chlor)-phenyl]-3--[methylthio]-1,2,4-triazol], for which, in series [1] (setting [2]), the “Prozentuale Hemmung bei einer peroralen Dosis von 1,56 mg/kg” value is on record as -17% and the “Prozentuale Hemmung bei einer peroralen Dosis von 3,12 mg/kg” value was -39%. In addition, in series [1] (po), the change in vivo at 6.25 mg/kg is -55% and the ED50 was 7.4 mg/kg. For the same compound, the change in vivo at 12.5 mg/kg in series [1] (setting [3]) was -67%. Besides, the “Tiere mit Geschwüren” value with Ratten (single dose 1 000 mg/kg, share of animals with ulcers) is 10%.
As to `CSc1nc(-c2cccs2)n(-c2ccc(Cl)cc2)n1` [Beispiel 30, 1-[4'-(Chlor)-phenyl]-5-[thien-2"-yl]-3-[methylthio]--1,2,4-triazol], in series [1] (setting [4]), the change in vivo at 12.5 mg/kg is -44%.
The same measure, in the same setting: as for `CCCCC1C(=O)N(c2ccccc2)N(c2ccccc2)C1=O` [Vergleichs-substanz A, 4-(Butyl)-1,2-di-(phenyl)-pyrazolidin-3,5-dion, reference compound], the figure is -7%.
With `CSc1nc(-c2ccc(F)cc2)n(-c2ccc(Cl)cc2)n1` [Beispiel 44, 1-[4'-(Chlor)-phenyl]-5-[4"-(fluor)-phenyl]-3--[methylthio]-1,2,4-triazol], in series [1] (setting [2]), the “Prozentuale Hemmung bei einer peroralen Dosis von 1,56 mg/kg” value is -36% and the “Prozentuale Hemmung bei einer peroralen Dosis von 3,12 mg/kg” value is on record as -64%. Further, in series [1] (po), the change in vivo at 6.25 mg/kg is -53% and the ED50 worked out at 2.1 mg/kg. Moreover, in series [1], the “Therapeu-tischer Index LD50-Wert / ED50-Wert” value is listed as 81,0. The LD50 in “in vivo” was 170 mg/kg.
Consider `CSc1nc(-c2ccc(C(F)(F)F)cc2)n(-c2ccc(F)cc2)n1` [Beispiel 45, 1-[4'-(Fluor)-phenyl]-5-[4"-(trifluormethyl)-phenyl]--3-[methylthio]-1,2,4-triazol], for which, in series [1] (po), the change in vivo at 6.25 mg/kg is -25%. Besides, the change in vivo at 12.5 mg/kg in series [1] (setting [4]) is -48%.
As to `COc1ccc2c(c1)c(CC(=O)O)c(C)n2C(=O)c1ccc(Cl)cc1` [Indometacin, 1-(p-Chlorbenzoyl)-5-(methoxy)-2-(methyl)-indol-3-ylessig-säure, reference compound], the “Ratten mit Geschwüren (Ulcus)” value in the series with Ratten (single dose 15 mg/kg, share of rats with ulcers) was determined as 100%.
On to `CSc1nc(-c2ccc(F)cc2)n(-c2ccc(F)cc2)n1` [Beispiel 41, 1-[4'-(Fluor)-phenyl]-5-[4"-(fluor)-phenyl]-3--[methylthio]-1,2,4-triazol], for which the “Prozentuale Hemmung bei einer peroralen Dosis von 3,12 mg/kg” value in series [1] (setting [2]) was -42%. In series [1] (po), the change in vivo at 6.25 mg/kg was -57%.
Consider `CSc1nc(-c2ccc(F)cc2)n(-c2cccc(Cl)c2)n1` [Beispiel 53, 1-[3'-(Chlor)-phenyl]-5-[4"-(fluor)-phenyl]-3--[methylthio]-1,2,4-triazol], for which the change in vivo at 12.5 mg/kg in series [1] (setting [4]) was -51%.
`CSc1nc(-c2ccc(Cl)cc2)n(-c2ccc(F)cc2)n1` [Beispiel 55, 1-[4'-(Fluor)-phenyl]-5-[4"-(chlor)-phenyl]-3--[methylthio]-1,2,4-triazol]: in series [1] (setting [2]), the “Prozentuale Hemmung bei einer peroralen Dosis von 1,56 mg/kg” value is listed as -12% and the “Prozentuale Hemmung bei einer peroralen Dosis von 3,12 mg/kg” value is -26%. Also, in series [1] (po), the change in vivo at 6.25 mg/kg was -68% and the ED50 worked out at 6.8 mg/kg. For the same compound, the “Therapeu-tischer Index LD50-Wert / ED50-Wert” value in series [1] is given as 55,9. For the same compound, in the series “in vivo”, the LD50 stood at 380 mg/kg.
Turning to `CSc1nc(-c2ccc(Cl)cc2)n(-c2cccc(C(F)(F)F)c2)n1` [Beispiel 42, 1-[3'-(Trifluormethyl)-phenyl]-5-[4"-(Chlor)-phenyl]--3-[methylthio]-1,2,4-triazol], the change in vivo at 6.25 mg/kg in series [1] (po) is -48%.
In the case of `CSc1nc(-c2ccc(Cl)cc2)n(-c2ccc(Br)cc2)n1` [Beispiel 54, 1-[4'-(Brom)-phenyl]-5-[4"-(chlor)-phenyl]-3--[methylthio]-1,2,4-triazol], the change in vivo at 6.25 mg/kg in series [1] (po) was -28%. Moreover, in series [1] (setting [4]), the change in vivo at 12.5 mg/kg is -56%.
Take `CSc1nc(-c2ccccc2SC)n(-c2ccc(Cl)cc2)n1` [Beispiel 14, 1-[4'-(Chlor)-phenyl]-5-[2"-(methylthio)-phenyl]-3--[methylthio]-1,2,4-triazol]: the “Prozentuale Hemmung bei einer peroralen Dosis von 3,12 mg/kg” value in series [1] (setting [2]) is -5%. For the same compound, in series [1] (setting [4]), the change in vivo at 12.5 mg/kg is -51%.
On to `COc1ccc2cc([C@H](C)C(=O)O)ccc2c1` [Vergleichs-substanz B, (+)-2-[6'--(Methoxy)-naphth-2'-yl]-propionsäure, reference compound], for which, in series [1] (po), the ED50 came out at 12.5 mg/kg. The change in vivo at 10 mg/kg in series [1] (setting [3]) was -34%.
Take `Clc1ccc(-c2nc(SCc3ccccn3)nn2-c2ccc(Cl)cc2)cc1` [Beispiel 4, 1,5-Bis-[4'-(chlor)-phenyl]-3-[pyrid-2"-ylmethyl-thio]-1,2,4-triazol]: the “Prozentuale Hemmung bei einer peroralen Dosis von 3,12 mg/kg” value in series [1] (setting [2]) is reported as -38%. In addition, in series [1] (po), the change in vivo at 6.25 mg/kg is -40%.
Take `CSc1nc(-c2ccc(F)cc2)n(-c2cccc(C(F)(F)F)c2)n1` [Beispiel 47, 1-[3'-(Trifluormethyl)-phenyl]-5-[4"-(fluor)-phenyl]--3-[methylthio]-1,2,4-triazol]: the change in vivo at 6.25 mg/kg in series [1] (po) is -22%. In addition, the change in vivo at 12.5 mg/kg in series [1] (setting [4]) is -53%.
